Where “and” joins values, the source holds several entries; their conditions need not be identical. Identical values can stand only once. Like-named read-outs stand apart in the source and are kept apart here.
Columns and labels:
[1] = biological target: T1, coca-GlyR (Homo sapiens, UniProt P23415+P36544, G175K/L141G/Y217F); experiment: Whole-cell voltage-clamp in HEK293 cells, coca-GlyR; assay type: cell-based; conditions: transfected HEK293
T1 construct: expressed in transfected cells; host or cells: HEK293 (ATCC CRL-1573), pcDNA3.1
T1 sequence (P36544+P23415 fused P36544:L141G/P36544:G175K/P36544:Y217F): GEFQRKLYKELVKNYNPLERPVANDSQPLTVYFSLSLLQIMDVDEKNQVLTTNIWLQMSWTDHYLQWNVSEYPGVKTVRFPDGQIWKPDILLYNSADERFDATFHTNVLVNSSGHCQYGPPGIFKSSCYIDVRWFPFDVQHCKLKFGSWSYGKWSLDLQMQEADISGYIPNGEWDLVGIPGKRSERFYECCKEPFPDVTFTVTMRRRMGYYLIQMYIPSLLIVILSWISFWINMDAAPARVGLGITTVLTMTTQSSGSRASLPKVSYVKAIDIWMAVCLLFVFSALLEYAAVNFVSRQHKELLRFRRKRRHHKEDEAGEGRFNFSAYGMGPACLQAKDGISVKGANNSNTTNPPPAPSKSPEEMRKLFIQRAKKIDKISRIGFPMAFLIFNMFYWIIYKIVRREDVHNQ
Method: (§1) Channel mutants and agonists were further characterized in whole-cell voltage-clamp experiments performed on HEK293 cells. At passage 44–48, cells were plated at low density (1 × 10^3 per cm^2) on poly-D-lysine-coated glass coverslips, then transfected in 10 cm^2 wells using the Fugene 6 transfection reagent (Roche) with DNA plasmids containing both an ion channel cDNA (pcDNA3.1, 2 µg per well) and cDNA for GFP (pCMV, 0.1 μg per well), followed by replacement of the medium after 3 h. Recordings were made 24–72 h after transfection.
(§2) Electrophysiological recordings were performed in whole-cell voltage-clamp mode, on an inverted fluorescence microscope (Olympus IX-51) using pClamp software and a […] amplifier (Molecular Devices). Electrophysiological data was filtered at 4 kHz, digitized at 10 kHz using a Digidata 1400 interface (Molecular Devices), recorded on a PC (Dell) and analysed using custom MATLAB software (MathWorks). Solutions were delivered from a gravity fed perfusion system through a capillary tube placed approximately […] from the recorded cell using an eight-way manifold pinch valve system (Nanion), which was controlled from the acquisition software. This allowed for up to seven concentrations of agonist to be tested. […]

[2] = biological target: T2, unmodified α7–5HT3 (UniProt P23979+P36544, M226I/T225I); experiment: Membrane potential assay, unmodified α7–5HT3; assay type: cell-based, human α7 nAChR LBD, mouse 5HT3 IPD
T2 construct: expressed in transfected cells; host or cells: HEK293 (ATCC CRL-1573), pcDNA3.1
T2 sequence (P36544+P23979 fused P36544:T225I/P36544:M226I): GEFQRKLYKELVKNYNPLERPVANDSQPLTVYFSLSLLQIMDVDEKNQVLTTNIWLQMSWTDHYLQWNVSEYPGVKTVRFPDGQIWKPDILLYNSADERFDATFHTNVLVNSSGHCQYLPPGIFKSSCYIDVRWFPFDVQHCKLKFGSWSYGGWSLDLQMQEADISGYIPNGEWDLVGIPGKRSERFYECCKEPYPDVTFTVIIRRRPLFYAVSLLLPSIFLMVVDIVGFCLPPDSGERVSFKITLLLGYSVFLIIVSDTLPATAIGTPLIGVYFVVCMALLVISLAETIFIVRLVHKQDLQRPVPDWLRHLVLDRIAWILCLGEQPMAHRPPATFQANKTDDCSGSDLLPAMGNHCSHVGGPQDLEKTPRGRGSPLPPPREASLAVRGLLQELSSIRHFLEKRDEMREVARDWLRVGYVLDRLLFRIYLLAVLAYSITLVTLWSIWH

[3] = tested on: coca-5HT3; experiment: Whole-cell voltage-clamp in HEK293 cells, coca-5HT3; assay type: cell-based, human α7 nAChR LBD, mouse 5HT3 IPD
Method: as §1, §2

[4] = biological target: T3, unmodified α7–GlyR (Homo sapiens, UniProt P23415+P36544); experiment: Membrane potential assay, unmodified α7–GlyR; assay type: cell-based; conditions: sheet 1d
T3 construct: expressed in transfected cells; host or cells: HEK293 (ATCC CRL-1573), pcDNA3.1
T3 sequence (P36544+P23415 fused): as the sequence (P36544+P23415 fused P36544:L141G/P36544:G175K/P36544:Y217F) above, with G119L, K153G, F195Y counted along it

[5] = biological target: T4, coca-GlyR (α7(L141G,G175K,Y217F)–GlyR) (Homo sapiens, UniProt P23415+P36544, G175K/L141G/Y217F); experiment: Membrane potential assay, coca-GlyR in HEK293; assay type: cell-based
T4 construct: expressed in transfected cells; host or cells: HEK293 (ATCC CRL-1573), pcDNA3.1
T4 sequence (P36544+P23415 fused P36544:L141G/P36544:G175K/P36544:Y217F): as the sequence (P36544+P23415 fused P36544:L141G/P36544:G175K/P36544:Y217F) above

[6] = biological target: α7–5HT3 mutant chimeric channels (Homo sapiens, UniProt P36544, S170W); experiment: cell-based; assay type: cell-based, human α7 nAChR LBD, mouse 5HT3 IPD
α7–5HT3 mutant chimeric channels (Homo sapiens, UniProt P36544, S170W), sequence (P23979 242-489): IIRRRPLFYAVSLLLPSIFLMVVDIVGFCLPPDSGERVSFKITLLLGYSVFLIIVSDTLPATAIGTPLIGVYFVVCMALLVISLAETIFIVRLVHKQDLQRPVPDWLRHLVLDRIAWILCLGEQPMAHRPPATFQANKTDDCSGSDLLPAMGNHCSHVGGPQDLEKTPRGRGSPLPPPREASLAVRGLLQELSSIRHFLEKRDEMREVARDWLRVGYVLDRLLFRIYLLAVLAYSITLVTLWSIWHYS
α7–5HT3 mutant chimeric channels (Homo sapiens, UniProt P36544, S170W), sequence (P36544 23-224 S170W): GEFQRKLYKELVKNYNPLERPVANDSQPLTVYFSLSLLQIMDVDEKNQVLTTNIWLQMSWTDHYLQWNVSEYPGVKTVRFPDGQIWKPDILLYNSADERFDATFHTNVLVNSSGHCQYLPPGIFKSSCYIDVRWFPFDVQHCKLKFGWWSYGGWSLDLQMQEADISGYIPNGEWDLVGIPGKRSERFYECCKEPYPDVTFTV

[7] = biological target: α7–5HT3 mutant chimeric channels (Homo sapiens, UniProt P36544, L141P); experiment: cell-based; assay type: cell-based, human α7 nAChR LBD, mouse 5HT3 IPD
α7–5HT3 mutant chimeric channels (Homo sapiens, UniProt P36544, L141P), sequence (P36544 23-224 L141P): as the sequence (P36544 23-224 S170W) above, with L119P, W148S counted along it
α7–5HT3 mutant chimeric channels (Homo sapiens, UniProt P36544, L141P), sequence (P23979 242-489, further chain): as the sequence (P23979 242-489) above

[8] = tested on: α7–5HT3 mutant chimeric channels; experiment: cell-based; assay type: cell-based, human α7 nAChR LBD, mouse 5HT3 IPD; conditions: for EC50: sheet 1e
[9] = biological target: α7–5HT3 mutant chimeric channels (Homo sapiens, UniProt P36544, Q139A); experiment: cell-based; assay type: cell-based, human α7 nAChR LBD, mouse 5HT3 IPD
α7–5HT3 mutant chimeric channels (Homo sapiens, UniProt P36544, Q139A), sequence (P23979 242-489): as above
α7–5HT3 mutant chimeric channels (Homo sapiens, UniProt P36544, Q139A), sequence (P36544 23-224 Q139A): as the sequence (P36544 23-224 S170W) above, with Q117A, W148S counted along it

[10] = biological target: α7–5HT3 mutant chimeric channels (Homo sapiens, UniProt P36544, S170L); experiment: cell-based; assay type: cell-based, human α7 nAChR LBD, mouse 5HT3 IPD
α7–5HT3 mutant chimeric channels (Homo sapiens, UniProt P36544, S170L), sequence (P23979 242-489): as the sequence (P23979 242-489) above
α7–5HT3 mutant chimeric channels (Homo sapiens, UniProt P36544, S170L), sequence (P36544 23-224 S170L): as the sequence (P36544 23-224 S170W) above, with W148L counted along it

[11] = biological target: α7–5HT3 mutant chimeric channels (Homo sapiens, UniProt P36544, Q139V); experiment: cell-based; assay type: cell-based, human α7 nAChR LBD, mouse 5HT3 IPD
α7–5HT3 mutant chimeric channels (Homo sapiens, UniProt P36544, Q139V), sequence (P23979 242-489): as the sequence (P23979 242-489) above
α7–5HT3 mutant chimeric channels (Homo sapiens, UniProt P36544, Q139V), sequence (P36544 23-224 Q139V): as the sequence (P36544 23-224 S170W) above, with Q117V, W148S counted along it

[12] = biological target: α7–5HT3 mutant chimeric channels (Homo sapiens, UniProt P36544, S170E); experiment: cell-based; assay type: cell-based, human α7 nAChR LBD, mouse 5HT3 IPD
α7–5HT3 mutant chimeric channels (Homo sapiens, UniProt P36544, S170E), sequence (P23979 242-489): as the sequence (P23979 242-489) above
α7–5HT3 mutant chimeric channels (Homo sapiens, UniProt P36544, S170E), sequence (P36544 23-224 S170E): as the sequence (P36544 23-224 S170W) above, with W148E counted along it

[13] = biological target: α7–5HT3 mutant chimeric channels (Homo sapiens, UniProt P36544, W77Y); experiment: cell-based; assay type: cell-based, human α7 nAChR LBD, mouse 5HT3 IPD
α7–5HT3 mutant chimeric channels (Homo sapiens, UniProt P36544, W77Y), sequence (P36544 23-224 W77Y): as the sequence (P36544 23-224 S170W) above, with W55Y, W148S counted along it
α7–5HT3 mutant chimeric channels (Homo sapiens, UniProt P36544, W77Y), sequence (P23979 242-489, further chain): as the sequence (P23979 242-489) above

[14] = biological target: α7–5HT3 mutant chimeric channels (Homo sapiens, UniProt P36544, Q139M); experiment: cell-based; assay type: cell-based, human α7 nAChR LBD, mouse 5HT3 IPD
α7–5HT3 mutant chimeric channels (Homo sapiens, UniProt P36544, Q139M), sequence (P36544 23-224 Q139M): as the sequence (P36544 23-224 S170W) above, with Q117M, W148S counted along it
α7–5HT3 mutant chimeric channels (Homo sapiens, UniProt P36544, Q139M), sequence (P23979 242-489, further chain): as the sequence (P23979 242-489) above

[15] = screen of chimeric α7–5HT3 and α7–GlyR single LBD mutants (Fig. 1d)

SMILES: COC(=O)[C@H]1[C@@H](OC(=O)c2ccccc2)C[C@@H]2CC[C@H]1N2C [cocaine]
- currents from coca-GlyR [1]: large, sustained currents
- EC50 at a75HT3 unmodified, AVG ([2]; sheet 1e, AVG): 30 µM
- EC50 at a75HT3 unmodified ([2]; sheet 1e, single determinations): 30 µM
- EC50 at α7-5HT3, Avg ([2]; sheet 1d, Avg): 30 µM
- EC50 at α7-5HT3 ([2]; sheet 1d, single determinations): 30 µM
- currents from coca-5HT3 [3]: robust cocaine-activated currents
- EC50 at α7-GlyR, Avg ([4]; Avg): 30 µM
- EC50 at α7-GlyR ([4]; single determinations): 30 µM
- EC50 [5]: 1.2 ± 0.1 µM
- EC50 [6]: > 30 µM
- EC50 [7]: > 30 µM
- EC50 ([7]; read-out: EC50 at α75HT3 L141P, Avg, sheet 1d, Avg): > 30 µM
- agonism at Leu141Gly or Leu141Ala mutant channels [8, 15]: marked induction of cocaine agonism
- agonist activity at Trp77Phe and Leu131Asn mutant channels [8, 15]: some cocaine agonist activity
- EC50 ([8]; AVG, read-out: EC50 at a75HT3 L141G G175K Y115F, AVG): 4.78 µM
- EC50 ([8]; AVG, read-out: EC50 at a75HT3 L141G G175K Y210F, AVG): 2.27 µM
- EC50 ([8]; AVG, read-out: EC50 at a75HT3 L141G G175K Y217F, AVG): 0.715 µM
- EC50 ([8]; AVG, read-out: EC50 at a75HT3 L141G G175K, AVG): 0.315 µM
- EC50 ([8]; AVG, read-out: EC50 at a75HT3 L141G, AVG): 2.35 µM
- EC50 ([8]; single determinations, read-out: EC50 at a75HT3 L141G): 2.35 µM
- EC50 ([8]; single determinations, read-out: EC50 at a75HT3 L141G G175K): 0.39 µM and 0.24 µM
- EC50 ([8]; single determinations, read-out: EC50 at a75HT3 L141G G175K Y217F): 0.8 µM and 0.63 µM
- EC50 [9]: > 30 µM
- EC50 ([9]; read-out: EC50 at a7 5HT3 Q139A, Avg, sheet 1d, Avg): > 30 µM
- EC50 [10]: 6 µM
- EC50 [11]: > 30 µM
- EC50 ([11]; read-out: EC50 at a7 5HT3 Q139V, Avg, sheet 1d, Avg): > 30 µM
- EC50 [12]: > 30 µM
- EC50 [13]: > 30 µM
- EC50 ([13]; read-out: EC50 at a7 5HT3 W77Y, Avg, sheet 1d, Avg): > 30 µM
- EC50 [14]: > 30 µM
- EC50 ([14]; read-out: EC50 at a7 5HT3 Q139M, Avg, sheet 1d, Avg): > 30 µM

Source: paper PMC12527922, “Cocaine chemogenetics blunts drug-seeking by synthetic physiology” (Nature, 2025)
